From publication PMC5372986, “Diminished Antimicrobial Peptide and Antifungal Antibiotic Activities against Candida albicans in Denture Adhesive” (Antibiotics, 2017)
In brackets after ≈: the same amount, converted by molar mass. Where a name gives a salt, the structure may show the parent alone. Read-outs that look alike come from different tables or passages of the source.

Legend:
[1] = system: C. albicans ATCC 64124; assay: microbe, parasite or virus in culture; details: for Activity in gels with 1.0% denture adhesive compared with gels without / Minimal inhibitory concentration (MIC): C. albicans ATCC 64124; for Activity in gels with 1.0% denture adhesive compared with gels without: result in words, Tukey HSD, 0.05 level; for MIC: Candida albicans
Method: (§1) C. albicans strains ATCC 64124 and HMV4C were used and cultivated as previously described. Their identities were verified (State Hygienic Laboratory, University of Iowa Research Park, Coralville, IA, USA). These cultures were adjusted to contain 1.2–3.7 × 10^6 CFU/mL in Roswell Park Memorial Institute (RPMI) 1640 medium.
(§2) The denture adhesive used was a standard, over-the-counter gel containing poly sodium-calcium mixed partial salt, petrolatum, cellulose gum, and mineral oil and was prepared as previously described. Denture adhesive was too viscous to use directly and was diluted to 1.0% for incorporation into the radial diffusion assay.
(§3) Each agent was reconstituted in distilled water with 0.01% acetic acid for resuspension to keep the agent in solution. Two-fold dilutions were prepared.
(§4) The radial diffusion assays were performed as described with the following unique modifications. Underlay agarose gels were prepared with and without 1.0% denture adhesive in square petri dishes (Electron Microscopy Sciences, Hatfield, PA, USA). Plates without 1.0% adhesive contained 12.5 mL of 10.0 mM sodium phosphate buffer adjusted to pH 7.4, 12.5 mL of 2.0% agarose (Agarose LE, Roche Diagnostics Corporation, Indianapolis, IN, USA) in 10.0 mM sodium phosphate adjusted to pH 7.4, and 1.0 mL of C. albicans culture per plate. Plates with 1.0% adhesive contained 12.5 mL of 2.0% dental adhesive in 10.0 mM sodium phosphate adjusted to pH 7.4, 12.5 mL 2.0% agarose (Agarose LE, Roche Diagnostics Corporation, Indianapolis, IN, USA) in 10.0 mM sodium phosphate adjusted to pH 7.4, and 1.0 mL of C. albicans culture. Wells of 2.0 mm in diameter were created and filled with 5.0 µL of AMP or antifungal antibiotic dilution (n = three replications per test). A blank of 0.01% acetic acid in distilled water was also included. The plates were incubated at 37 °C for 3 h. After incubation, 10.0 mL of overlay containing 1.0% agarose in 10.0 mM phosphate buffer with 6.0% RPMI 1640, was added to each plate. The plates were incubated at 37 °C overnight. At 24 h, antimicrobial activity was determined by measuring the zone of clearance around the center of each well and extrapolating MIC as described.
(§5) When MICs fell outside the range of the assay, we considered the MIC to be equal to the highest concentration used in the assay. […] One-way fixed-effects ANOVA models were fit to the µM MIC values. Pairwise group comparisons were conducted using the method of Tukey’s Honest Significant Differences (HSD). A 0.05 level was used to determine statistically significant differences. All analyses were conducted using JMP (Version 10.0, SAS, Cary, NC, USA).

[2] = system: C. albicans HMV4C; assay: microbe, parasite or virus in culture; details: radial diffusion; for Activity in gels with 1.0% denture adhesive compared with gels without / Minimal inhibitory concentration (MIC): C. albicans HMV4C; for Activity in gels with 1.0% denture adhesive compared with gels without: result in words, Tukey HSD, 0.05 level; for MIC: Candida albicans, HMV4C; for MIC / Minimal inhibitory concentration (MIC): mean (standard error, n = 3)
Method: as §1, §2, §3, §4, §5

[3] = system: Candida albicans; details: broth microdilution, p < 0.05; cited from earlier work
From the text: Candida species infections can cause complications for individuals with dentures, such as denture stomatitis.

[4] = ATCC64124, 24 h, pH 7.4, read-out: Minimal inhibitory concentration (MIC), C. albicans ATCC 64124, Adhesive (1.0% denture adhesive in gel), radial diffusion, pH 7.4, 37 °C, read at 24 h, mean (standard error, n = 3)
[5] = ATCC64124, 24 h, pH 7.4, read-out: Minimal inhibitory concentration (MIC), C. albicans ATCC 64124, No Adhesive, radial diffusion, pH 7.4, 37 °C, read at 24 h, mean (standard error, n = 3)
[6] = ATCC64124, read-out: Minimal inhibitory concentration (MIC), C. albicans ATCC 64124, Adhesive (1.0% denture adhesive in gel), radial diffusion, mean (standard error, n = 3)
[7] = ATCC64124, read-out: Minimal inhibitory concentration (MIC), C. albicans ATCC 64124, No Adhesive, radial diffusion, mean (standard error, n = 3)
[8] = 24 h, pH 7.4, read-out: Minimal inhibitory concentration (MIC), C. albicans HMV4C, Adhesive (1.0% denture adhesive in gel), pH 7.4, 37 °C, read at 24 h
[9] = 24 h, pH 7.4, read-out: Minimal inhibitory concentration (MIC), C. albicans HMV4C, No Adhesive, agarose in 10.0 mM sodium phosphate pH 7.4, 37 °C, read at 24 h
[10] = read-out: Minimal inhibitory concentration (MIC), C. albicans HMV4C, Adhesive (1.0% denture adhesive in gel)
[11] = read-out: Minimal inhibitory concentration (MIC), C. albicans HMV4C, No Adhesive
[12] = Adhesive (1.0% denture adhesive in gel), radial diffusion, pH 7.4, 37 °C, read at 24 h, mean (standard error, n = 3)
[13] = Adhesive (1.0% denture adhesive in gel), radial diffusion, mean (standard error, n = 3)
[14] = No Adhesive, radial diffusion, pH 7.4, 37 °C, read at 24 h, mean (standard error, n = 3)
[15] = No Adhesive, radial diffusion, mean (standard error, n = 3)
[16] = Adhesive (1.0% denture adhesive in gel), pH 7.4, 37 °C, read at 24 h
[17] = Adhesive (1.0% denture adhesive in gel)
[18] = No Adhesive, agarose in 10.0 mM sodium phosphate pH 7.4, 37 °C, read at 24 h

Structure (SMILES)	Activity in gels with 1.0% denture adhesive compared with gels without ([1]; radial diffusion)	MIC [1, 4]	MIC [1, 5]	MIC [1, 6]	MIC [1, 7]	Activity in gels with 1.0% denture adhesive compared with gels without [2]	MIC [2, 8]	MIC [2, 9]	MIC [2, 10]	MIC [2, 11]	Loss of antimicrobial activity in 1.0% denture adhesive [3]	Minimal inhibitory concentration (MIC) [1, 12]	Minimal inhibitory concentration (MIC) [1, 13]	Minimal inhibitory concentration (MIC) [1, 14]	Minimal inhibitory concentration (MIC) [1, 15]	Minimal inhibitory concentration (MIC) [2, 16]	Minimal inhibitory concentration (MIC) [2, 17]	Minimal inhibitory concentration (MIC) [2, 18]	Minimal inhibitory concentration (MIC) ([2]; No Adhesive)	other results
[H]/N=C(\N/C(=N/[H])NCCCCCCNC(=N)NC(=N)Nc1ccc(Cl)cc1)Nc1ccc(Cl)cc1 [Chlorhexidine dihydrochloride]	same	4.6 µg/mL	6.9 µg/mL	8 µM	11.9 µM	same	11.1 µg/mL	5.7 µg/mL	19.2 µM	9.9 µM	did not	–	–	–	–	–	–	–	–	–
N=C(NCCCCCCNC(=N)NC(=N)Nc1ccc(Cl)cc1)NC(=N)Nc1ccc(Cl)cc1.O=C(O)[C@H](O)[C@@H](O)[C@H](O)[C@H](O)CO.O=C(O)[C@H](O)[C@@H](O)[C@H](O)[C@H](O)CO [Chlorhexidine gluconate]	diminished antimicrobial activity	–	–	–	–	same antimicrobial activity	–	–	–	–	did not	81.6 (3.2) µg/mL	90.9 (3.6) µM	4.1 (0.2) µg/mL	4.6 (0.2) µM	0.7 (0.4) µg/mL	0.8 (0.4) µM	6.3 (0.1) µg/mL	7.0 (0.1) µM	–
OC(Cn1cncn1)(Cn1cncn1)c1ccc(F)cc1F [Fluconazole]	same	> 1000 µg/mL	> 1000 µg/mL	> 3270 µM	> 3270 µM	same	8.1 µg/mL	3.9 µg/mL	26.4 µM	12.7 µM	did not	–	–	–	–	–	–	–	–	Minimal inhibitory concentration (MIC) ([1]; in both gels with or without 1.0% denture adhesive): 3265.1 µM (≈ 1000 µg/mL); MIC ([1]; ATCC64124, read-out: Minimal inhibitory concentration (MIC), C. albicans ATCC 64124, in both gels with or without 1.0% denture adhesive): > 1000 µg/mL
CC[C@H](C)[C@@H]1NC(=O)[C@H](CO)NC(=O)[C@@H]2CCCN2C(=O)[C@H](C)NC(=O)CNC(=O)[C@H](CC(C)C)NC(=O)[C@H](CCCCN)NC(=O)[C@H](CCCCN)NC(=O)[C@H](CCSC)NC(=O)[C@H](CCCNC(=N)N)NC(=O)[C@H](Cc2c[nH]c3ccccc23)NC(=O)[C@H](CCC(N)=O)NC(=O)[C@H](Cc2c[nH]c3ccccc23)NC(=O)[C@H](CCCNC(=N)N)NC(=O)[C@H](CCCNC(=N)N)NC(=O)[C@@H](NC(=O)[C@H](CCCCN)NC(=O)[C@@H](N)Cc2ccccc2)CSSC[C@@H](C(=O)N[C@H](C(=O)N[C@@H](CCCNC(=N)N)C(=O)N[C@@H](CCCNC(=N)N)C(=O)N[C@@H](C)C(=O)N[C@@H](Cc2ccccc2)C(=O)O)C(C)C)NC(=O)[C@H]([C@@H](C)O)NC1=O [Lactoferricin B]	diminished activity	–	–	–	–	diminished activity	–	–	–	–	lost antimicrobial activity	–	–	–	–	–	–	–	–	–
C[C@@H]1[C@H](O)[C@@H](C)/C=C/C=C/CC/C=C/C=C/C=C/C=C/C(O[C@H]2O[C@H](C)[C@@H](O)[C@H](N)[C@@H]2O)CC2O[C@](O)(CC(O)C(O)CCC(O)CC(O)CC(O)CC(=O)O[C@H]1C)CC(O)C2C(=O)O (stereo partly shown) [Nystatin]	diminished	–	–	–	–	diminished	–	–	–	–	did not	61.0 (2.5) µg/mL	65.9 (2.7) µM	9.7 (0.2) µg/mL	10.5 (0.2) µM	137.2 (8.2) µg/mL	148.1 (8.9) µM	9.4 (0.2) µg/mL	10.2 (0.2) µM	–
